Laboratory results as given in patent US10005733B2, “N-(4-hydroxy-4-methyl-cyclohexyl)-4-phenyl-benzenesulfonamide and N-(4-hydroxy-4-methyl-cyclohexyl)-4-(2-pyridyl)-benzenesulfonamide compounds and their therapeutic use” (PIMCO 2664 LIMITED, priority 2014, dated 2018).

Tests used:
[1] = tested on: IL-6 release from Thp1 macrophages; assay: Thp1 Macrophage IL-6 Release Assay (LPS-stimulated); type: cell-based; conditions: Homo sapiens, THP-1, 18 h, 100 ng/mL LPS
From the text: Anti-inflammatory effects were further characterised by assessing the production of interleukin-6 (IL-6) by human Thp-1 derived macrophages stimulated with a pro-inflammatory stimulus bacterial lipopolysaccharide (LPS). LPS acts with a cell-surface receptor, Toll-like receptor-4 to activate the NFκB and IRF signalling pathways to produce IL-6. The reduction of IL-6 in this stimulated assay is indicative of anti-inflammatory effects with utility in the treatment of conditions in which IL-6 production is aberrant. In vitro potency of test compounds in human cells was determined by incubation with Thp1 macrophages and subsequent stimulation with an inflammatory stimulus (bacterial lipopolysaccharide (LPS)) followed by measurement of cellular interleukin-6 (IL-6) release. […] The following day, the cells were stimulated with phorbol myristic acid (PMA) at a final concentration of 200 nM to induce differentiation and maintained for 3 days. Test compounds were prepared as […] solutions in DMSO and then serially diluted in DMSO prior to dilution in culture medium. The diluted compounds were added to the cultures 1 hour prior to stimulation with 100 ng/mL LPS. Compounds were tested in triplicate in a 9 point concentration response curve at concentrations of 30, 10, 3, 1, 0.3, 0.1, 0.03, 0.01 and 0.001 μM Following an 18 hour incubation at 37° C./5% CO2, the cell culture medium was collected and assayed for human IL-6 levels using the human IL-6 duo-set ELISA kit (R&D Systems). The average results for each test compound (n=3) were expressed as a percent (%) of the average control value. The average values across the concentrations tested were then plotted and the IC50 for the inhibition of IL-6 was calculated by fitting the data to a 4-parameter IC50 equation using GraphPad Prism software for Windows (Graph Pad Software, San Diego Calif. USA) or Grafit version 5 (Erithacus Software). Each experiment was repeated twice and the data are presented as the mean IC50 from both experiments.

CYP2C9 = molecular target: T1, CYP2C9 (Homo sapiens, UniProt P11712); assay: Human Cytochrome P450 Inhibition Assay (Bactosomes), CYP2C9; type: in vitro ADME; conditions: recombinant Bactosomes, probe substrate, 10 minutes at 37° C.
T1 construct: purchased Cypex Ltd, Dundee, Scotland UK
Method: (§1) The ability of test compounds to inhibit five of the most relevant cytochrome P450 enzymes was measured by determination of the activity of cytochrome P450 enzymes in recombinant cytochrome preparations, called Bactosomes (Cypex Ltd, Dundee, Scotland UK DD2 1NH), in the presence of a specific probe substrate. Bactosomes are a highly efficient and cost-effective source of recombinant CYP450s which have a higher specific activity of enzyme compared to other sources, such as liver microsomes. […] The following CYP450 isoforms were assayed: CYP1A2, CYP2C9, CYP2C19, CYP2D6 and CYP3A4. The study of CYP450 inhibition potential in Bactosomes is accepted as a valuable model permitting rapid prediction of potential drug-drug interactions in vivo (see, e.g., Weaver et al., 2003).
(§2) Bactosomes were obtained from a commercial source (Cypex, Scotland, UK). Test compounds were incubated with Bactosomes at 6 concentrations. Samples were incubated for 10 minutes, after which the reaction was stopped and the samples analysed by LC-MS/MS Multiple Reaction Monitoring (MRM) for the presence/amount of substrate probe.
(§3) CYP450 enzymes (final protein 75 pmol/mL for CYP1A2; 12.5 pmol/mL for CYP2C19; and 25 pmol/mL for CYP2C9, 2D6 and 3A4), 0.1 M phosphate buffer pH 7.4, probe and test compound (final concentration 50, 15.8, 5, 1.58, 0.5 and 0.158 μM; diluted from 10 mM stock solution to give a final DMSO concentration of 1%) were pre-incubated at 37° C. for 5 minutes. The reaction was initiated by the addition of 20 μL of 10 mM NADPH in phosphate buffer. The final incubation volume was 200 μL. The following control inhibitors were used for each CYP450 inhibition assay: CYP1A2: α-naphthoflavone; CYP2C9: sulfaphenazole; CYP2C19: tranylcypromine; CYP2D6: quinidine; CYP3A4: ketoconazole.
(§4) Each compound was incubated for 10 minutes at 37° C. The reactions were stopped by the addition of methanol (final composition 1:1, aqueous: methanol). The incubation plates were shaken, chilled at […] for 2 hours, and centrifuged at 3500 rpm for 15 minutes at 4° C. to precipitate the protein.
(§5) IC50 values were determined by linear transformation within Microsoft Excel.

CYP2D6 = molecular target: T2, CYP2D6 (Homo sapiens, UniProt P10635); assay: Human Cytochrome P450 Inhibition Assay (Bactosomes), CYP2D6; type: in vitro ADME; conditions: recombinant Bactosomes, probe substrate, 10 minutes at 37° C.
T2 construct: purchased Cypex Ltd, Dundee, Scotland UK
Method: as §1, §2, §3, §4, §5

hERG ion channel = molecular target: T3, hERG ion channel (Homo sapiens, UniProt Q12809); assay: hERG Ion Channel Assay (Q-patch, hERG-CHO cells); type: cell-based; conditions: CHO cells stably transfected with hERG (hERG-CHO), pH 7.4, hERG tail current
T3 construct: expressed in transfected cells; host or cells: Chinese Hamster Ovary cells (hERG-CHO)
Method: The activity of the compounds against the hERG ion channel was tested. The assay was conducted using the automated path-clamp, Q-patch method using stably transfected Chinese Hamster Ovary cells (hERG-CHO). hERG-CHO cells were cultured in F-12 Kaighn's Nutrient Mixture medium (Invitrogen)+10% FBS at 37° C. for 1-3 days. Cells were kept at 30° C. for 24 to 48 hours prior to patch clamping in order to increase the hERG current amplitude. Subsequently, the cells were harvested by trypsinisation, and kept in Serum Free Medium (SFM) in the Q-patch cell preparation state for up to 6 hours at room temperature before being washed and re-suspended in extracellular solution and applied to the patch clamp sites for data recording.
Patch-clamp voltage protocol: After whole cell configuration was achieved, the cell was held at −80 mV. A 50 millisecond pulse to −40 mV was delivered to measure the leaking current, which was subtracted from the tail current on-line. Then the cell was depolarized to +20 mV for 2 seconds, followed by a one second pulse to −40 mV to reveal hERG tail current. This paradigm was delivered once every 5 seconds to monitor the current amplitude.
Extracellular solution: 137 mM NaCl, 4 mM KCl, 1.8 mM CaCl2, 1 mM MgCl2, 10 mM D(+)-glucose, 10 mM HePES buffer (pH adjusted to 7.4 with NaOH).
After the whole cell configuration was achieved, the extracellular solution (control) was applied first and the cell was stabilized for 2 minutes in extracellular solution. The test compound was then applied from low concentrations to high concentrations cumulatively. The cell was incubated with each test concentration for 5 minutes. During each incubation, the cell was repetitively stimulated using the voltage protocol described above, and the tail current amplitude was continuously monitored.
The degree of inhibition (%) was obtained by measuring the tail current amplitude, induced by a one second test pulse to −40 mV after a two second pulse to +20 mV, before and after incubation with the test compound. The difference in current was normalized to control and multiplied by 100 in order to obtain the percent inhibition.
Concentration (log) response curves were fitted to a logistic equation (three parameters assuming complete block of the current at very high test compound concentrations) to generate estimates of the 50% inhibitory concentration (IC50). The concentration-response relationship of each compound was constructed from the percentage reductions of current amplitude by sequential concentrations.

[2] = footnote (1): Thp1 cells plated at 3 × 10^5 cells/well, Grafit
[3] = footnote (2): Thp1 cells plated at 1.7 × 10^5 cells/well, GraphPad Prism

T3 sequence (Q12809 whole entry): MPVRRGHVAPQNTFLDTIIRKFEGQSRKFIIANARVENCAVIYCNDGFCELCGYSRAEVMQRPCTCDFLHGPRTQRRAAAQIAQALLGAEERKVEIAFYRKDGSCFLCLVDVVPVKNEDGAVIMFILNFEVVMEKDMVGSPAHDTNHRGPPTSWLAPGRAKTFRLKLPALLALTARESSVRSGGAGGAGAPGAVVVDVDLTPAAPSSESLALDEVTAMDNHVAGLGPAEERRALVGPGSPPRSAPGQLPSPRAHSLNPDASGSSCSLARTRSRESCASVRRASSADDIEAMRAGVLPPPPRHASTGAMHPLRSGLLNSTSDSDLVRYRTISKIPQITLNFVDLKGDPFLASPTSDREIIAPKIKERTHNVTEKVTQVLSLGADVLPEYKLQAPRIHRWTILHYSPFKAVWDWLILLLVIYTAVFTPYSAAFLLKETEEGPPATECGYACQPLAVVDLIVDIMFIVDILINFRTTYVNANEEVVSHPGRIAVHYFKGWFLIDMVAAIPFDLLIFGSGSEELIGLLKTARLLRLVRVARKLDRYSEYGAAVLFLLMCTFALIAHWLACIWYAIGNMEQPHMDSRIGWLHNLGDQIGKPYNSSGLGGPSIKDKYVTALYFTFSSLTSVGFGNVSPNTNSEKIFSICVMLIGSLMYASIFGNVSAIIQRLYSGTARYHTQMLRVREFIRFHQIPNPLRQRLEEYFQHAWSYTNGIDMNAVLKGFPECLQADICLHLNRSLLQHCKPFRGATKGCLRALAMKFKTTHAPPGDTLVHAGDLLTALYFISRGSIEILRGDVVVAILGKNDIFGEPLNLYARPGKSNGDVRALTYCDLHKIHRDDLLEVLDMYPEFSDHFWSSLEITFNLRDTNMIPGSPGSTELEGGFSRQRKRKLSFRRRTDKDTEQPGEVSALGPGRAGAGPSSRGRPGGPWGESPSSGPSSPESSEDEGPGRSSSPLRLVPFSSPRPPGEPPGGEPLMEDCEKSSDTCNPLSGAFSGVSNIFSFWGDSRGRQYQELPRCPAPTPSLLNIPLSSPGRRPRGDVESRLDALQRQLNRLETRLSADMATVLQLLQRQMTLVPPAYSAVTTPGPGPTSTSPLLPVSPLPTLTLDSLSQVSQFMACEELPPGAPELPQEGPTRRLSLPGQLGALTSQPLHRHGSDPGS
T2 sequence (P10635 whole entry): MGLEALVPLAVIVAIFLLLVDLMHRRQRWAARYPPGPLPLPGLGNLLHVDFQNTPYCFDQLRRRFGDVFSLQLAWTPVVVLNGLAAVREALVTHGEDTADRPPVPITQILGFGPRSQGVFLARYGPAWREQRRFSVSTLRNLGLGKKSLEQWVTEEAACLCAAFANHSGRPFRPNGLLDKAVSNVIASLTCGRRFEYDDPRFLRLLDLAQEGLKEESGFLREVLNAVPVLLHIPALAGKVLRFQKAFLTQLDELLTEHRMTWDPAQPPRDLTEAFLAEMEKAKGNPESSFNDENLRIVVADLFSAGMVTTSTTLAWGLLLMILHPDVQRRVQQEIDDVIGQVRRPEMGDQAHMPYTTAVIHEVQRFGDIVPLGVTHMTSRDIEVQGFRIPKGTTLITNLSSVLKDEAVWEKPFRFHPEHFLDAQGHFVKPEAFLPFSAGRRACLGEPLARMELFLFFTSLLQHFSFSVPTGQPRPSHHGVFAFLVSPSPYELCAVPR
T1 sequence (P11712 whole entry): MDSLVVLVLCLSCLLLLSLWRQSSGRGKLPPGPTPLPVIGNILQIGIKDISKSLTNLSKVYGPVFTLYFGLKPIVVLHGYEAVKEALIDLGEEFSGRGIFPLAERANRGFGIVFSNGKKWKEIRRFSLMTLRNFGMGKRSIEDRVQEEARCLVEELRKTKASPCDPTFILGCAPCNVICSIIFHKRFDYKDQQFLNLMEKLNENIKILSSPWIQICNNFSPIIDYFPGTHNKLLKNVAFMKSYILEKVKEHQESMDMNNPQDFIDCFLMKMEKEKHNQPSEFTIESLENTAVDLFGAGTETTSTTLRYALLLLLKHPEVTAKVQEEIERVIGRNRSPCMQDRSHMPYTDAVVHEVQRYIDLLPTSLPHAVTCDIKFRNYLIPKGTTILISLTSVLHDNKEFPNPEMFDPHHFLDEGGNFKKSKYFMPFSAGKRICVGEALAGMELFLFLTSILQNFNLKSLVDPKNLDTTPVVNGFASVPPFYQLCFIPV

| Structure (SMILES) | IC50 [1, 2] | IC50 [1, 3] | IC50 (CYP2C9) | IC50 (CYP2D6) | inhibition at 5 min, 10 µM (hERG ion channel) |
| --- | --- | --- | --- | --- | --- |
| O=S(=O)(N[C@H]1CC[C@H](O)CC1)c1ccc(-c2ccc(F)cc2F)cc1 [ABD599, reference compound] | 0.07 µM | 0.19 µM | 9.5 µM | 20.7 µM | 74.9% |
| Cc1cc(S(=O)(=O)N[C@H]2CC[C@H](O)CC2)ccc1-c1ccc(F)cc1F [ABD735, reference compound] | – | – | 25 µM | > 25 µM | – |
| C[C@]1(O)CC[C@@H](NS(=O)(=O)c2ccc(-c3ccc(F)cc3F)cc2)CC1 [ABD899, reference compound] | 0.03 µM | 0.04 µM | 3.9 µM | 45.3 µM | 85.2% |
| C[C@]1(O)CC[C@H](NS(=O)(=O)c2ccc(-c3ccc(F)cc3F)cc2)CC1 [ABD900] | 0.09 µM | 0.11 µM | – | – | 15.1% |
| C[C@]1(O)CC[C@H](NS(=O)(=O)c2ccc(-c3ccc(C#N)cc3)c(F)c2)CC1 [HMC-C-07-A, 4′-Cyano-2-fluoro-N-((1r,4r)-4-hydroxy-4-methylcyclohexyl)-[1,1′-biphenyl]-4-sulfonamide] | – | – | > 50 µM | > 50 µM | 47% |
| C[C@]1(O)CC[C@@H](NS(=O)(=O)c2ccc(-c3ccc(C#N)cc3)c(F)c2)CC1 [HMC-C-07-B, 4′-Cyano-2-fluoro-N-((1s,4s)-4-hydroxy-4-methylcyclohexyl)-[1,1′-biphenyl]-4-sulfonamide] | – | 0.018 µM | > 50 µM | > 50 µM | 40% |
| C[C@]1(O)CC[C@H](NS(=O)(=O)c2ccc(-c3ccc(Cl)cc3C#N)c(F)c2)CC1 [HMC-C-08-A, 4′-Chloro-2′-cyano-2-fluoro-N-((1r,4r)-4-hydroxy-4-methylcyclohexyl)-[1,1′-biphenyl]-4-sulfonamide] | – | 0.16 µM | 6.7 µM | 19 µM | 29% |
| C[C@]1(O)CC[C@H](NS(=O)(=O)c2ccc(-c3ccc(C#N)cc3Cl)cc2)CC1 [HMC-C-09-A, 2′-Chloro-4′-cyano-N-((1r,4r)-4-hydroxy-4-methylcyclohexyl)-[1,1′-biphenyl]-4-sulfonamide] | – | 0.17 µM | 34 µM | > 50 µM | 57% |
| C[C@]1(O)CC[C@@H](NS(=O)(=O)c2ccc(-c3cc(F)c(F)cc3F)cc2)CC1 [HMC-C-10-B, 2′,4′,5′-Trifluoro-N-((1s,4s)-4-hydroxy-4-methylcyclohexyl)-[1,1′-biphenyl]-4-sulfonamide] | – | 0.55 µM | 2.4 µM | > 16 µM | – |
| C[C@]1(O)CC[C@H](NS(=O)(=O)c2ccc(-c3ccc(Cl)cc3C#N)c(Cl)c2)CC1 [HMC-C-11-A, 2,4′-Dichloro-2′-cyano-N-((1r,4r)-4-hydroxy-4-methylcyclohexyl)-[1,1′-biphenyl]-4-sulfonamide] | – | 0.26 µM | 2.7 µM | 9.3 µM | – |
| C[C@]1(O)CC[C@H](NS(=O)(=O)c2ccc(-c3ncc(Cl)cc3C#N)cc2)CC1 [HMC-N-05-A, 4-(5-Chloro-3-cyanopyridin-2-yl)-N-((1r,4r)-4-hydroxy-4-methylcyclohexyl)benzenesulfonamide] | – | 0.3 µM | 27 µM | > 50 µM | 35% |
